Here are results for 31 molecules from patent publication US20100216777A1, “AMINOPYRAZINE ANALOGS FOR TREATING GLAUCOMA AND OTHER RHO KINASE-MEDIATED DISEASES AND CONDITIONS” (ALCON, INC., priority 2004, published 2010).

Structures are written as SMILES. pIC50: −log10 of the molar value. Counter-ions that a name gives are not always drawn.

This experiment concerns the target T1, Human Recombinant ROCK-II Enzyme (ROKα/ROCK-II, aa 11-552) (Homo sapiens, UniProt O75116).
T1 construct: (ROKα/ROCK-II, (aa 11-552), human active); purchased Upstate Biotechnology Co., Lake Placid, N.Y. 14-451
In words: ROCK-II inhibition, fluorescence polarization assay (IMAP ROCK II kit). The class given is biochemical. The following applies: substrate 200 nM, ATP 10 μM, 60 min at 23° C., read-out: Enzyme Inhibition Constants (IC50) against Human Recombinant ROCK-II Enzyme. Here is the method:
The ability of certain compounds of Formula (I) to inhibit rho kinase was evaluated by means of in vitro assays. Human recombinant Rho kinase (ROKα/ROCK-II, (aa 11-552), human active, catalog #14-451, Upstate Biotechnology Co., Lake Placid, N.Y.), MgCl2/ATP cocktail, and enzyme substrate (Upstate) are used.
The fluorescence polarization assays are performed using a Biomek 2000 Robotic Workstation (Beckman Instruments, Palo Alto, Calif.) in a 96-well plate format. The assays are performed utilizing the IMAP ROCK II kit (Molecular Devices, Sunnyvale, Calif.) as follows. Substrate and ATP concentrations used are 200 nM and 10 μM, respectively, while the enzyme concentration is 3.96×10^−3 units per well. The substrate, enzyme, and ATP dilutions are made with the reaction buffer provided by the vendor. Test compounds are diluted in 10:10 DMSO-ethanol (vol/vol). For the actual assays, the various components are added into black, clear bottom, 96-well plates (Costar, Corning, N.Y.) in a final volume of 20 μl per well. After the enzyme reaction (60 min at 23° C.), 60 μl of the binding solution (IMAP kit, provided by vendor) is added per well and incubated for an additional 30 minutes in the dark at 23° C. Fluorescence polarization of the reaction mixtures is then measured on the Analyst™ HT instrument (Molecular Devices, Sunnyvale, Calif.).
The data generated are then analyzed using a non-linear, iterative, sigmoidal-fit computer program purchased from IDBS (Emeryville, Calif.) and as previously described (Sharif et al., J. Pharmacol. Exp. Ther. 286:1094-1102, 1998; Sharif et al., J. Pharmacol. Expt. Ther. 293:321-328, 2000; Sharif et al., J. Ocular Pharmacol. Ther. 18:141-162, 2002a; Sharif et al., J. Pharmac. Pharmacol. 54:539-547, 2002b) to generate the inhibition constants for the test compounds.

T1 sequence (O75116 11-552): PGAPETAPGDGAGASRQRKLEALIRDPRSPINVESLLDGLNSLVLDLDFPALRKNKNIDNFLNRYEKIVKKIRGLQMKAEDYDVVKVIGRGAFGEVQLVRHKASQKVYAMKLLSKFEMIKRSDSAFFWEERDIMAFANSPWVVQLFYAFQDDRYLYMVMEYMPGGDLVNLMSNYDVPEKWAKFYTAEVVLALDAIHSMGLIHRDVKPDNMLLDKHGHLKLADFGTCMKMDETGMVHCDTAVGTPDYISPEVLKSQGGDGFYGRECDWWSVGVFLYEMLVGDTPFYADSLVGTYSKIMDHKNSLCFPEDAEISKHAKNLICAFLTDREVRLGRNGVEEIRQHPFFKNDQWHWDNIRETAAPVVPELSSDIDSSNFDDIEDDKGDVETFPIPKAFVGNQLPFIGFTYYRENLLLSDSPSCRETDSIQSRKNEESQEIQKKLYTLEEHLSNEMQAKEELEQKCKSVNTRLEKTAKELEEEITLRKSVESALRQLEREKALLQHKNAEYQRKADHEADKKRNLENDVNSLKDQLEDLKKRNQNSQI

In general, pIC50 refers to the IC50 on a negative log10 scale, so that one unit is a factor of ten. For `CN1CCCC(Oc2nc(-c3ccncc3)cnc2N)C1` (stereo not shown) [Example 21, 3-(1-Methylpiperidin-3-yloxy)-5-(pyridin-4-yl)pyrazin-2-amine], the pIC50 is 8.38.

For the molecule `Nc1ncc(-c2ccncc2)nc1OC1CCNCC1` [Example 22, 3-(Piperidin-4-yloxy)-5-(pyridin-4-yl)pyrazin-2-amine], the pIC50 is 8.96.

`Nc1ncc(-c2ccncc2)nc1OC1CCCNC1` (stereo not shown) [Example 23, 3-(Piperidin-3-yloxy)-5-(pyridin-4-yl)pyrazin-2-amine]: the pIC50 was 9.17.

For the molecule `Nc1ncc(-c2ccncc2)nc1N1CCN(CCCO)CC1` [Example 24, 3-(4-(3-Amino-6-(pyridin-4-yl)pyrazin-2-yl)piperazin-1-yl)propan-1-ol], the pIC50 was 8.77.

Regarding `CNc1ncc(-c2ccncc2)nc1N1CCCN(C)CC1` [Example 25, N-Methyl-3-(4-methyl-1,4-diazepan-1-yl)-5-(pyridin-4-yl)pyrazin-2-amine hydrochloride], the pIC50 is 8.62.

For `CNc1ncc(-c2ccncc2)nc1NC1CCCNC1` (stereo not shown) [Example 26, N^2-Methyl-N^3-(piperidin-3-yl)-5-(pyridin-4-yl)pyrazine-2,3-diamine hydrochloride], the pIC50 was 8.68.

Regarding `COCCNc1ncc(-c2ccncc2)nc1N1CCCN(C)CC1` [Example 27, N-(2-Methoxyethyl)-3-(4-methyl-1,4-diazepan-1-yl)-5-(pyridin-4-yl)pyrazin-2-amine hydrochloride], the pIC50 is 8.28.

Consider `CN1CCCN(c2nc(-c3ccncc3)cnc2NCCO)CC1` [Example 28, 2-(3-(4-Methyl-1,4-diazepan-1-yl)-5-(pyridin-4-yl)pyrazin-2-ylamino)ethanol hydrochloride], for which the pIC50 is 8.52.

For the molecule `COCCN(C)c1ncc(-c2ccncc2)nc1N1CCCN(C)CC1` [Example 29, N-(2-Methoxyethyl)-N-methyl-3-(4-methyl-1,4-diazepan-1-yl)-5-(pyridin-4-yl)pyrazin-2-amine hydrochloride], the pIC50 was 7.35.

Regarding `CN(C)c1ncc(-c2ccncc2)nc1N1CCN(CCO)CC1` [Example 30, 2-(4-(3-(Dimethylamino)-6-(pyridin-4-yl)pyrazin-2-yl)piperazin-1-yl)ethanol hydrochloride], the negative logarithm of the IC50 (pIC50) is 9.52.

With `CN(C)c1ncc(-c2ccnc3[nH]ccc23)nc1N1CCN(CCO)CC1` [Example 31, 2-(4-(3-(Dimethylamino)-6-(1H-pyrrolo[2,3-b]pyridin-4-yl)pyrazin-2-yl)piperazin-1-yl)ethanol], the pIC50 is 10.28.

As for `CN1CCCN(c2nc(-c3ccncc3)cnc2N(C)C)CC1` [Example 32, N,N-dimethyl-3-(4-methyl-1,4-diazepan-1-yl)-5-(pyridin-4-yl)pyrazin-2-amine hydrochloride], the pIC50 is 8.77.

Take `CN1CCCN(c2nc(-c3ccnc4[nH]ncc34)cnc2N(C)C)CC1` [Example 33, N,N-Dimethyl-3-(4-methyl-1,4-diazepan-1-yl)-5-(1H-pyrazolo[3,4-b]pyridin-4-yl)pyrazin-2-amine dihydrochloride]: the pIC50 is 9.27.

Take `CN(C)c1ncc(-c2ccncc2)nc1NC1CCCNC1` (stereo not shown) [Example 34, N,N-(Piperidin-3-yl)-6-(pyridin-4-yl)pyrazine-2,3-diamine]: the pIC50 is 8.51.

Turning to `CN(C)c1ncc(-c2ccncc2)nc1OC1CCNCC1` [Example 35, N,N-Dimethyl-3-(piperidin-4-yloxy)-5-(pyridin-4-yl)pyrazin-2-amine hydrochloride], the pIC50 is 9.03.

In the case of `CN(C)CCCOc1nc(-c2ccncc2)cnc1N(C)C` [Example 36, 3-(3-(Dimethylamino)propoxy)-N,N-dimethyl-5-(pyridin-4-yl)pyrazin-2-amine hydrochloride], the pIC50 is 7.96.

With `CCN(CC)c1ncc(-c2ccncc2)nc1N1CCCN(C)CC1` [Example 37, N,N-Diethyl-3-(4-methyl-1,4-diazepan-1-yl)-5-(pyridin-4-yl)pyrazin-2-amine hydrochloride], the pIC50 was 8.17.

For `CN1CCCN(c2nc(-c3ccncc3)cnc2N2CCCC2)CC1` [Example 38, 1-Methyl-4-(6-(pyridin-4-yl)-3-(pyrrolidin-1-yl)pyrazin-2-yl)-1,4-diazepane hydrochloride], the pIC50 was 9.48.

As for `CN1CCCN(c2nc(-c3ccnc4[nH]ccc34)cnc2N2CCCC2)CC1` [Example 39, 4-(6-(4-Methyl-1,4-diazepan-1-yl)-5-(pyrrolidin-1-yl)pyrazin-2-yl)-1H-pyrrolo[2,3-b]pyridine dihydrochloride], the pIC50 was 9.80.

Regarding `c1cc(-c2cnc(N3CCCC3)c(N3CCCNCC3)n2)ccn1` [Example 40, 1-(6-(Pyridin-4-yl)-3-(pyrrolidin-1-yl)pyrazin-2-yl)-1,4-diazepane hydrochloride], the pIC50 was 9.48.

For the molecule `c1cc2[nH]ncc2cc1-c1cnc(N2CCCC2)c(N2CCCNCC2)n1` [Example 42, 5-(6-(1,4-Diazepan-1-yl)-5-(pyrrolidin-1-yl)pyrazin-2-yl)-1H-indazole hydrochloride], the pIC50 was 10.48.

`Cc1n[nH]c2ccc(-c3cnc(N4CCCC4)c(N4CCCNCC4)n3)cc12` [Example 43, 5-(6-(1,4-Diazepan-1-yl)-5-(pyrrolidin-1-yl)pyrazin-2-yl)-3-methyl-1H-indazole hydrochloride]: the pIC50 was 9.96.

Consider `OCCN1CCN(c2nc(-c3ccncc3)cnc2N2CCCC2)CC1` [Example 44], for which the pIC50 is 10.11.

For `c1cc(-c2cnc(N3CCCC3)c(NC3CCCNC3)n2)ccn1` (stereo not shown) [Example 45, N-(Piperidin-3-yl)-6-(pyridin-4-yl)-3-(pyrrolidin-1-yl)pyrazin-2-amine dihydrochloride], the pIC50 was 9.60.

With `c1cc(-c2cnc(N3CCCC3)c(OC3CCNCC3)n2)ccn1` [Example 46, 3-(Piperidin-4-yloxy)-5-(pyridin-4-yl)-2-(pyrrolidin-1-yl)pyrazine], the negative logarithm of the IC50 (pIC50) was 10.08.

Take `c1cc(-c2cnc(N3CCCC3)c(OC3CCNCC3)n2)c2cc[nH]c2n1` [Example 47, 4-(6-(Piperidin-4-yloxy)-5-(pyrrolidin-1-yl)pyrazin-2-yl)-1H-pyrrolo[2,3-b]pyridine]: the pIC50 is 10.27.

For the molecule `CN1CCCN(c2nc(-c3ccncc3)cnc2N2CCCCC2)CC1` [Example 48, 1-Methyl-4-(3-(piperidin-1-yl)-6-(pyridin-4-yl)pyrazin-2-yl)-1,4-diazepane hydrochloride], the pIC50 was 9.25.

Regarding `c1cc(-c2cnc(N3CCCCC3)c(NC3CCCNC3)n2)ccn1` (stereo not shown) [Example 49, 3-(Piperidin-1-yl)-N-(piperidin-3-yl)-6-(pyridin-4-yl)pyrazin-2-amine], the pIC50 was 9.52.

For the molecule `CN1CCCN(c2nc(-c3ccncc3)cnc2N2CCCCCC2)CC1` [Example 50, 1-(3-(Azepan-1-yl)-6-(pyridin-4-yl)pyrazin-2-yl)-4-methyl-1,4-diazepane hydrochloride], the pIC50 was 10.70.

`c1cc(-c2cnc(N3CCCCCC3)c(NC3CCCNC3)n2)ccn1` (stereo not shown) [Example 51, 3-(Azepan-1-yl)-N-(piperidin-3-yl)-6-(pyridin-4-yl)pyrazin-2-amine dihydrochloride]: the pIC50 was 9.72.

In the case of `CN1CCCN(c2nc(-c3ccncc3)cnc2N2CCOCC2)CC1` [Example 52, 4-(3-(4-Methyl-1,4-diazepan-1-yl)-5-(pyridin-4-yl)pyrazin-2-yl)morpholine trihydrochloride], the pIC50 was 8.20.
